The assay concerns proseodymium nitrate liver damage. Conditions: serum, 72 hours after 14 mg/kg praseodymnitrate i.v.; SMG1 140.5 mg/kg i.v. three days, MG1 40.5 mg/kg.

Method: The liver-protectiveeffect of the SMG1 was tested on white rats, in that experimentally produced liver damage was antagonized by SMG1 treatment. The rats were injected with the SMG1- or MG1-dosages in 5 ml 0.9% NaCl solution, to which 4% of PVP (M.W. about 10,000) was added per kg of body weight. A dosage of 140.5 mg/kg SMG1 corresponds to 100 mg Silymarin and 40.5 mg 1-methylamino-glucose. When the test animals received 140.5 mg/kg SMG1, the control animals were treated with the equivalent dosage of 1-methylamino glucose, i.e. 40.5 mg/kg.
In another series of tests, antagonization of proseodymium nitrate liver damage by SMG1, measured by the reaction of the serum enzyme glutamate-oxalacetate-transaminase (GOT), glutamate-pyruvate-transaminase (GPT), sorbital-dehydrogenase (SDH) and alkaline phosphatases (AP), was employed as a measure of efficacy of the instant materials. […] The test animals, male Wistar rats weighing approximately 200 g, were treated for three days with 140.5 mg/kg SMG1 i.v. On the first testing day, all rats were damaged i.v. with 14 mg/kg praseodymnitrate one hour after the SMG1- or MG1- injection.

On to “1-methylamino glucose [1-methylamino-glucose]”, for which the “AP (alkaline phosphatase)” value is given as 168.0 mU/ml, the GOT is 360.6 mU/ml, the GPT amounted to 118.4 mU/ml and the SDH stood at 32.0 mU/ml.

(Values after patent US3994925A, “Salt of the silymarin group with aminopolyhydroxy alcohols” (Dr. Madaus & Co., priority 1973, dated 1976).)
